Test results: ChEMBL document CHEMBL1139527, “Synthesis, modeling, and in vitro activity of (3'S)-epi-K-252a analogues. Elucidating the stereochemical requirements of the 3'-sugar alcohol on trkA tyrosine kinase activity” (J Med Chem, 2005)

Tests used:
[1] = Inhibition of [gamma-32P]-ATP binding to protein kinase C (1.5 ng) done for 10 min in pH 7.4 at 37 degree C with compound dissolved in DMSO using in In-Plate assay
[2] = target: T1, High affinity nerve growth factor receptor (Homo sapiens, UniProt P04629); experiment: Inhibition of baculovirus expressed human trkA
[3] = target: T1, High affinity nerve growth factor receptor; experiment: Inhibition of NGF-stimulated TrkA phosphorylation in NIH3T3 cells; assay type: cell-based
[4] = Relative binding to PKC and TrkA

T1 sequence (P04629 whole entry): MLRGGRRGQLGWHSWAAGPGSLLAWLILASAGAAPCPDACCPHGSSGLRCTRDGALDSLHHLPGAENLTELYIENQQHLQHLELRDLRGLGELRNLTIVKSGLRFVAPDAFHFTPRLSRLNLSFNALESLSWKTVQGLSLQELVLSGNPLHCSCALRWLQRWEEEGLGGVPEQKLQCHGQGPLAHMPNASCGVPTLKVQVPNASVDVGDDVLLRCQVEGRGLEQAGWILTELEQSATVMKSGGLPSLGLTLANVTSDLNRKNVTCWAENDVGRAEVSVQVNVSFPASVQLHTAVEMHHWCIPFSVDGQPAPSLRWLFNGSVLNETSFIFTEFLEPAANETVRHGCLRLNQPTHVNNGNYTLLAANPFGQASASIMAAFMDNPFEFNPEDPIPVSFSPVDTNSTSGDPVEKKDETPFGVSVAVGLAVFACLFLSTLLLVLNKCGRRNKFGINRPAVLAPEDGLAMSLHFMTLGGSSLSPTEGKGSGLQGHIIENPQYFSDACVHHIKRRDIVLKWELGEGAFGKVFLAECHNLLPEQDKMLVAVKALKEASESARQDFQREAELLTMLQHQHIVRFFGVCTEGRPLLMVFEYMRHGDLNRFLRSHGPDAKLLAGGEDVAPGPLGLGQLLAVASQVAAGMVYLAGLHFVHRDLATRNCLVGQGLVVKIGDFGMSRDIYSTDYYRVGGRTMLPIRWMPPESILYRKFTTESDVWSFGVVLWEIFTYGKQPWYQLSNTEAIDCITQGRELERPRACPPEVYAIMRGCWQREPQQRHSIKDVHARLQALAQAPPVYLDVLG

| SMILES | IC50 [1] [nM] | IC50 [2] [nM] | IC50 [3] [nM] | Ratio [4] |
| --- | --- | --- | --- | --- |
| COC(=O)[C@]1(O)C[C@H]2O[C@]1(C)n1c3ccccc3c3c4c(c5c6ccccc6n2c5c31)C(=O)NC4 | 114 |  |  |  |
| C[C@]12O[C@H](C[C@@]1(O)C(N)=O)n1c3ccccc3c3c4c(c5c6ccccc6n2c5c31)CNC4=O | 663 | 29 |  |  |
| COC(=O)[C@@]1(O)C[C@H]2O[C@]1(C)n1c3ccccc3c3c4c(c5c6ccccc6n2c5c31)C(=O)NC4 [K-252A] | 250 |  |  |  |

Further lines, results first:

| IC50 [1] [nM] | IC50 [2] [nM] | IC50 [3] [nM] | Ratio [4] | SMILES |
| --- | --- | --- | --- | --- |
| 310 | 20 |  |  | C[C@@]1(O)C[C@H]2O[C@]1(C)n1c3ccccc3c3c4c(c5c6ccccc6n2c5c31)C(=O)NC4 |
| 79 | 4 |  |  | CC1(C)O[C@@H](n2c3ccccc3c3c4c(c5c6ccccc6[nH]c5c32)CNC4=O)C[C@@]1(O)CO |
| 850 | 3 | < 10 |  | C[C@]1(O)C[C@H]2O[C@]1(C)n1c3ccccc3c3c4c(c5c6ccccc6n2c5c31)C(=O)NC4 |
| 218 | 4 |  |  | CC1(C)O[C@@H](n2c3ccccc3c3c4c(c5c6ccccc6[nH]c5c32)CNC4=O)C[C@]1(O)CO |
| 114 | 2.9 |  | 39 | CO[C@]1(CO)C[C@H]2O[C@]1(C)n1c3ccccc3c3c4c(c5c6ccccc6n2c5c31)C(=O)NC4 |
